Experimental data published in paper PMC7179205, “An Improved Synthesis of Key Intermediate to the Formation of Selected Indolin-2-Ones Derivatives Incorporating Ultrasound and Deep Eutectic Solvent (DES) Blend of Techniques, for Some Biological Activities and Molecular Docking Studies” (Molecules, 2020).
Several values for one entry are separate records, joined by “and”; a condition that tells them apart may be missing. Identical values can stand only once. Entries after “also recorded” stand apart in the source; their conditions may differ. Like-named read-outs stand apart in the source and are kept apart here.

Legend:
gastric tissue = assay: lipid peroxidation (MDA content of gastric tissue); type: in vivo; conditions: for MDA content (lipid peroxidation): as repeated in Table 4, the values are: MDA content (lipid peroxidation); for Nanomoles of MDA Content ± SEM/ 100 mg Tissue: gastric tissue
Experimental: Gastrointestinal (GI) ulceration, bleeding, and renal problems are common complications of NSAID’S consumption, which is directly related to lipid peroxidation. […] It was measured as the nmol of MDA/100 mg of gastric tissue. We have found the Lipid peroxidation value was maximum 6.71 ± 0.18 for indomethacin, whereas 3.89 ± 0.17, 4.08 ± 0.22, 4.26 ± 0.12, and 4.81 ± 0.13 for compounds 4i, 4c, 4f, and 4n, respectively.
The method adopted for lipid peroxidation is the same as Ohkawaet al. and the recent work of our researchers.

Rat Paw Edema = assay: carrageenan-induced hind paw edema method (anti-inflammatory activity); type: in vivo, Wistar albino rats; conditions: for inhibition in vivo at 10 mg/kg: Rattus norvegicus, po; for inhibition in vivo at 10 mg/kg / % Age Inhibition of Rat Paw Edema, 4 H / anti-inflammatory activity (in words): oral dose 10 mg/kg; for inhibition in vivo at 10 mg/kg / % Age Inhibition of Rat Paw Edema, 4 H: mean ± SEM; for Potency (anti-inflammatory): relative to indomethacin = 1.00; for anti-inflammatory activity (in words): compared with standard indomethacin
Experimental: The anti-inflammatory activity of the synthesized compounds (4a–n) was evaluated by the carrageenan-induced paw edema method. An oral dose of 10 mg/kg was used for compounds and compared with the standard. Anti-inflammatory activity was accessed through percentage inhibition after 2 and 4 h (Table 1).
Compounds produced were assessed for their anti-inflammatory activity using the carrageenan-induced hind paw edema method. The anti-inflammatory activity was carried out using Wistar albino rats of either sex (150–220 g) using a Digital Plethysmometer (Model No. 7140, UGO BASILE). The edema was induced by using 1% carrageenan solution. Indomethacin was used as a standard drug. The anti-inflammatory activity of the standard drug and tested compounds was determined at a dose of 10 mg/kg body weight. The animals were divided into groups containing six animals each and the initial paw volume of each rat was noted by the NaCl displacement method. One group was kept as control, one as standard, and the rest of the groups of compounds were to be tested. To the control group, 1% CMC solution was administered p.o. To the standard group, the standard drug was administered orally. To the test group, tested compounds were administered orally. After 60 min of the 1% CMC solution/standard drug/test compound administration, 0.1 ml of 1% (w/v) carrageenan was injected in the plantar region of the hind limb (right) of all the rats in each group including the control group. The paw volume was again measured after the time interval of 2 and 4 h. Using the following formula, inflammation was calculated as percentage inhibition for the test and reference compounds
(Final foot volume of control—final foot volume of std./test) × 100 / final foot volume of control)

[1] = tested on: acetic acid-induced writhing; assay: acetic acid-induced writhing method (analgesic activity); type: in vivo, Swiss albino mice; conditions: for inhibition in vivo at 10 mg/kg: Mus musculus, read-out: % Analgesic Activity; for Potency (analgesic): relative to indomethacin = 1.00; for Mean with ± SEM: writhes counted for 15 min; for analgesic activity (in words): compared with standard indomethacin
Experimental: All the tested compounds and standard drugs are evaluated at 10 mg/kg oral dose.
The analgesic activity of the tested compounds was carried out by acetic acid-induced writhing method as given in the literature using Swiss albino mice of either sex (25–35 g). The writh were induced in the albino mice using an intraperitoneal injection of 1% acetic acid solution. The standard drug indomethacin and test compounds were evaluated at a concentration of 10 mg/kg of the body weight. The animals were divided into groups and each group consisted of six animals. One group was kept as control, one as standard, and other as test groups. To the control group, 0.1% CMC solution was administered p.o; to the standard group, the standard drug was administered orally, and to the test group, test compounds were administered orally. After 60 min of the 0.1% CMC solution/standard drug/tested compound administration, 0.1 ml of 1% (v/v) acetic acid solution in distilled water was injected intraperitoneally in all the mice in each group including the control group. The writhing (a contraction of the abdomen, turning of trunk, and extension of hind limbs) was counted after 5 min of acetic acid administration and were counted for a period of 15 min. The percentage of analgesic activity was calculated using the following formula.
(Mean wriths of control—mean wriths of std./test) / mean wriths of control) × 100

gastric mucosal damage = assay: acute ulcerogenic activity (severity index of gastric mucosal damage); type: in vivo, Wistar rats; conditions: for Severity Index: test compounds 30 mg/kg oral, indomethacin 10 mg/kg or 20 mg/kg, 17 h after dose, mean ± SEM
Experimental: Four compounds, namely, 4c (Ar = 4-chlorophenyl), 4f (Ar = 2-chlorophenyl), 4i (Ar = 4-fluoro-3-chlorophenyl), and 4n (Ar = 2-methylphenyl) were selected for their ulcerogenic activity. This selection was based on their anti-inflammatory and analgesic activity. Compounds were evaluated at an oral dose of 30 mg/kg relative to 10 mg/kg indomethacin.
Acute ulcerogenic activity evaluation of the synthesized compounds was carried out according to the method described using Wistar rats of either sex (180–220 g). The animals were distributed into control, group, and test group. Each group consisted of six rats. All the rats fasted for 24 h with free access to water. To the control group, 1% CMC solution was administered p.o; to the standard group, indomethacin at a concentration of 20 mg/kg was administered orally; and to the test groups, tested compounds were administered orally at a concentration of 30 mg/kg. After the dose administration animals were kept for 17 h. After this, the animals were sacrificed for the appraisal of ulcerogenic assessment. The stomach was taken out from the animal body and washed with flushing water, then with a cotton swab wetted with saline (0.9%) and pinned on wax-coated try. The glandular portion of the stomach was cleaned again with saline to closely identify the presence of a type of ulcers or hemorrhage mark using a magnifying glass. The mucosal injury of the stomach was evaluated as per the following system: 0.5 = redness; 1 = spot ulcer; 1.5 = hemorrhage streak; 2 = ulcers < 3; 3 = ulcers > 3 < 5. The value obtained as a result of the mean score of the individual treated group—mean score of control is referred to as the severity index of the gastric mucosal damage.

[2] = 2 h, 2 h, read-out: % Age Inhibition of Rat Paw Edema, 2 H
[3] = 4 h, 4 h, read-out: % Age Inhibition of Rat Paw Edema, 4 H

Row | Structure (SMILES) | MDA content (lipid peroxidation) (gastric tissue) [nmol MDA/100 mg tissue] | melting point [°C] | Nanomoles of MDA Content ± SEM/ 100 mg Tissue (gastric tissue) | inhibition in vivo at 10 mg/kg (Rat Paw Edema; [2]) [%] | inhibition in vivo at 10 mg/kg (Rat Paw Edema; [3]) [%] | Potency (anti-inflammatory) (Rat Paw Edema; 10 mg/kg) | inhibition in vivo at 10 mg/kg ([1]; oral dose 10 mg/kg, mean ± SEM) [%] | Potency (analgesic) ([1]; 10 mg/kg) | Mean with ± SEM ([1]; oral dose 10 mg/kg) | Severity Index (gastric mucosal damage) | % Age Inhibition of Rat Paw Edema, 4 H (Rat Paw Edema; 4 h, 10 mg/kg) [%] | anti-inflammatory activity (in words) (Rat Paw Edema; 10 mg/kg) | analgesic activity (in words) ([1]; oral dose 10 mg/kg) | anti-inflammatory activity (in words) (Rat Paw Edema) | analgesic activity (in words) ([1]; oral dose 10 mg/kg, 10 mg/kg) | severity index as share of the severity shown by the standard (gastric mucosal damage; relative to indomethacin) [%] | Nanomoles of MDA Content ± SEM/ 100 mg Tissue (gastric tissue; listed as indomethacin) | % Analgesic Activity ([1]; oral dose 10 mg/kg, mean ± SEM, 10 mg/kg) [%]
1 | O=C1C(=NNc2nc(-c3cc4ccccc4oc3=O)cs2)c2ccccc2N1CNc1ccc(Cl)cc1 [Compound 4c, 1-[(4-Chloro-phenylamino)-methyl]-3-{[4-(2-oxo-2H-chromen-3-yl)-thiazol-2-yl]-hydrazono}-1,3-dihydro-indol-2-one] | 4.08 ± 0.22 | 233 to 235 | 4.08 ± 0.22 nmol of MDA/100 mg of gastric tissue and 4.26 ± 0.12 nmol of MDA/100 mg of gastric tissue | 59.29 ± 0.143 | 30.17 ± 0.294 | 0.36 | 59.9 ± 0.846 | 0.81 | 13.00 ± 0.2582 | 0.666 ± 0.105 |  |  |  |  |  |  |  | 
2 | O=C1C(=NNc2nc(-c3cc4ccccc4oc3=O)cs2)c2ccccc2N1CNc1ccccc1Cl [Compound 4f, 1-[(2-chloro-phenylamino)-methyl]-3-{[4-(2-oxo-2H-chromen-3-yl)-thiazol-2-yl]-hydrazono}-1,3-dihydro-indol-2-one] | 4.26 ± 0.12 | 239 to 241 | 4.26 ± 0.12 nmol of MDA/100 mg of gastric tissue and 4.08 ± 0.22 nmol of MDA/100 mg of gastric tissue | 48.38 ± 0.219 | 72.4 | 0.88 | 69.36 ± 0.585 | 0.94 | 9.93 ± 0.386 | 0.666 ± 0.105 | 72.42 ± 0.183 | good anti-inflammatory activity; also recorded: significant anti-inflammatory activity | very good analgesic activity |  |  |  |  | 
3 | COc1ccc2c(c1)c(CC(=O)O)c(C)n2C(=O)c1ccc(Cl)cc1 [Indomethacin, reference compound] |  |  | 6.71 ± 0.18 nmol of MDA/100 mg of gastric tissue | 66.34 ± 0.051 | 82 | 1.00 | 73.6 | 1.00 | 8.55 ± 0.394 | 4.500 ± 0.316 | 82.05 ± 0.08 |  |  |  |  |  | 6.71 ± 0.18 nmol of MDA/100 mg of gastric tissue | 73.61 ± 0.315

The next lines start with results.

Row | MDA content (lipid peroxidation) (gastric tissue) [nmol MDA/100 mg tissue] | melting point [°C] | Structure (SMILES) | Nanomoles of MDA Content ± SEM/ 100 mg Tissue (gastric tissue) | inhibition in vivo at 10 mg/kg (Rat Paw Edema; [2]) [%] | inhibition in vivo at 10 mg/kg (Rat Paw Edema; [3]) [%] | Potency (anti-inflammatory) (Rat Paw Edema; 10 mg/kg) | inhibition in vivo at 10 mg/kg ([1]; oral dose 10 mg/kg, mean ± SEM) [%] | Potency (analgesic) ([1]; 10 mg/kg) | Mean with ± SEM ([1]; oral dose 10 mg/kg) | Severity Index (gastric mucosal damage) | % Age Inhibition of Rat Paw Edema, 4 H (Rat Paw Edema; 4 h, 10 mg/kg) [%] | anti-inflammatory activity (in words) (Rat Paw Edema; 10 mg/kg) | analgesic activity (in words) ([1]; oral dose 10 mg/kg) | anti-inflammatory activity (in words) (Rat Paw Edema) | analgesic activity (in words) ([1]; oral dose 10 mg/kg, 10 mg/kg) | severity index as share of the severity shown by the standard (gastric mucosal damage; relative to indomethacin) [%] | Nanomoles of MDA Content ± SEM/ 100 mg Tissue (gastric tissue; listed as indomethacin) | % Analgesic Activity ([1]; oral dose 10 mg/kg, mean ± SEM, 10 mg/kg) [%]
4 | 3.89 ± 0.17 | 246 to 248 | O=C1C(=NNc2nc(-c3cc4ccccc4oc3=O)cs2)c2ccccc2N1CNc1ccc(F)c(Cl)c1 [Compound 4i, 1-[(3-Chloro-4-fluoro-phenylamino)-methyl]-3-{[4-(2-oxo-2H-chromen-3-yl)-thiazol-2-yl]-hydrazono}-1,3-dihydro-indol-2-one] | 3.89 ± 0.17 nmol of MDA/100 mg of gastric tissue | 31.27 ± 0.188 | 63.95 ± 0.218 | 0.77 | 66.3 ± 1.01 | 0.90 | 10.93 ± 0.3128 | 0.500 ± 0.129 |  |  |  | moderate anti-inflammatory activity | very good analgesic activity; also recorded: good analgesic activity |  |  | 
5 | 4.81 ± 0.13 | 237 to 239 | Cc1ccccc1NCN1C(=O)C(=NNc2nc(-c3cc4ccccc4oc3=O)cs2)c2ccccc21 [Compound 4n, 3-{[4-(2-Oxo-2H-chromen-3-yl)-thiazol-2-yl]-hydrazono}-1-(o-tolylamino-methyl)-1,3-dihydro-indol-2-one] | 4.81 ± 0.13 nmol of MDA/100 mg of gastric tissue | 42.57 ± 0.213 | 69.58 ± 0.133 | 0.84 | 69.14 ± 0.689 | 0.93 | 10.00 ± 0.3651 |  |  |  | very good analgesic activity |  |  | 20 |  | 
